Measurements reported in US7655442B2, “Method for stabilizing macrolide compounds” (Eisai R&D Management Co., Ltd., priority 2004, dated 2010).
Where two headings read alike, the source gives them in different places.

Tests used:
[1] = format: physicochemical
Protocol: The macrolide compound 11107B was dissolved in Dulbecco's PBS (−) in a concentration of 0.1 mg/mL, and β-CD in concentrations of 10, 3, 1, and 0.3 mg/mL. The 11107B solution and β-CD solution were mixed in equal volumes, and incubation was immediately begun in a 40° C. thermostatic incubator. The solution was sampled at the start (0 hour) and after 1, 2, 4 and 6 hours had elapsed, the samples were analyzed by HPLC under the analysis conditions (A) of Example 1, and the concentration of the 11107B was calculated. Since the plot of the 11107B concentration versus elapsed time was substantially linear, it was concluded that decomposition was occurring in pseudo first-order reaction, and the apparent decomposition rate constant kobs was calculated from the slope thereof. kobs was termed k0 when no β-CD was prevent. According to a report by Ma et al. (J. Pharm. Sci. (2000), 89 (2), 275-287), 1/(k0-kobs) was plotted against the inverse of the β-CD concentration, kc, which is kobs when a large excess of β-CD was present, was calculated from an intercept thereof, and the stabilization constant Kc was calculated from the slope.

[2] = Effect of β-CD and methylated β-CD on stabilization of 11107B in Dulbecco's PBS (-) at 25° C. (HPLC purity); format: physicochemical
Protocol: (§1) <Calculation Equation> 11107B purity(%)=[peak surface area value of 11107B/(sum of peak surface area value of 11107B+peak surface area value of impurities and decomposition products)]×100
The macrolide compound 11107B and β-CD or methylated β-CD were dissolved in Dulbecco's PBS (−) in concentrations of 0.1 mg/mL and 10 mg/mL, respectively. The 11107B solution and β-CD solution were mixed in equal volumes, and incubation was immediately begun in thermostatic incubator at 25° C. The solution was sampled at the start (0 hour) and after 24, 48 and 120 hours had elapsed, and the samples were analyzed by HPLC under the following analysis conditions (B). The purity of the 11107B was calculated from the equation in Example 1 using the resulting chromatogram.
<HPLC Analysis Conditions (B)>
Column: Develosil ODS UG-3, 4.6×50 mm, 3 μm (made by Nomura Chemical)
Column temperature: 40° C.
Detection wavelength: 240 nm
Eluate: water/methanol gradient
• A=water, B=methanol • 45-55% B (0 to 5 minutes), 55% B (5 to 13 minutes) • 55-70% B (13 to 21 minutes), 45% B (21 to 25 minutes) Retention time: 13 minutes (11107B)

[3] = format: physicochemical; settings: for Purity of macorolide compound 11107B: freeze-dried preparation
Protocol: as §1
Lactose monohydrate was dissolved in purified water in a concentration of 10 mg/mL and HP-β-CD in concentrations of 0, 10 and 200 mg/mL. The macrolide compound 11107B was dissolved in a concentration of 0.1 mg/mL in each of these three types of solution. 1 mL of each solution was put into vials and freeze-dried. The freeze-dried preparations thus obtained were stored for one month at −20° C., 40° C. and 60° C., after which 1 mL of 50% acetonitrile aqueous solution was added to each vial to dissolve the preparation. This product was analyzed by HPLC analysis under the conditions (A) of Example 1, and the purity of the 11107B was calculated according to the equation of Example 1.

[4] = Effects of various cyclodextrins on stabilization of macrolide compound 11107B in Dulbecco's PBS (-) at 25° C. (HPLC purity); format: physicochemical
Protocol: The macrolide compound 11107B (hereinafter sometimes abbreviated as 11107B) and various cyclodextrins were dissolved in concentrations of 0.1 mg/mL and 10 mg/mL, respectively, in Dulbecco's PBS (−). The 11107B solution and cyclodextrin solution were mixed in equal volumes, and incubation was immediately begun in at thermostatic incubator at 25° C. The solution was sampled at the start (0 hour) and after 24 and 48 hours had elapsed, the samples were analyzed by high performance liquid chromatography (HPLC) under the following analysis conditions (A), and the purity of the 11107B was calculated from the following equation using the chromatogram thus obtained.
<HPLC Analysis Conditions (A)>
Column: L-column, 4.6×150 mm, Chemicals Evaluation and Research Institute
Column temperature: 35° C.
Detection wavelength: 241 nm
Mobile phase A: 0.1% (v/v) formic acid•10% (v/v) acetonitrile
Mobile phase B: 0.1% (v/v) formic acid•90% (v/v) acetonitrile
Gradient program: B=10% (start)→B=40% (15 minutes)→B=100% (20 minutes)→B=10% (20.01 minutes)→B=10% (23 minutes, stop)<
as §1

[5] = β-CD concentration 0.15 mg/mL, PBS (-), 40° C.
[6] = β-CD concentration 0.5 mg/mL, PBS (-), 40° C.
[7] = β-CD concentration 1.5 mg/mL, PBS (-), 40° C.
[8] = β-CD concentration 5 mg/mL, PBS (-), 40° C.

CCC(O)C(C)C1OC1CC(C)/C=C/C=C(\C)C1OC(=O)CC(O)CCC(C)(O)C(OC(C)=O)/C=C/C1C (stereo not drawn) [11107B, (8E,12E,14E)-7-acetoxy-3,6,21-trihydroxy-6,10,12,16,20-pentamethyl-18,19-epoxytricosa-8,12,14-trien-11-olide]
stabilization constant Kc ([1]; 0.05 mg/mL): ≥ 1500
k0 (kobs when no β-CD was present) ([1]; PBS (-), 40° C., estimated): 0.152 h⁻¹
kc (kobs when a large excess of β-CD was present) ([1]; from intercept of 1/(k0-kobs) versus inverse of β-CD concentration, PBS (-), 40° C.): 0.004 h⁻¹
kobs (apparent decomposition rate constant) ([1]; β-CD concentration 0 mg/mL, PBS (-), 40° C.): 0.152 h⁻¹
1/(k0 − kobs) [1, 5]: 39.057
k0 − kobs [1, 5]: 0.026
kobs (apparent decomposition rate constant) [1, 5]: 0.126 h⁻¹
1/(k0 − kobs) [1, 6]: 16.736
k0 − kobs [1, 6]: 0.060
kobs (apparent decomposition rate constant) [1, 6]: 0.092 h⁻¹
1/(k0 − kobs) [1, 7]: 9.971
k0 − kobs [1, 7]: 0.100
kobs (apparent decomposition rate constant) [1, 7]: 0.052 h⁻¹
1/(k0 − kobs) [1, 8]: 7.590
k0 − kobs [1, 8]: 0.132
kobs (apparent decomposition rate constant) [1, 8]: 0.020 h⁻¹
decomposition rate of included 11107B relative to 11107B that was not included ([1]; β-CD inclusion, PBS (-), 40° C.): 1/30
Purity of macorolide compound 11107B ([2]; CD not added, 0 h): 98%
Purity of macorolide compound 11107B ([2]; CD not added, 24 h): 59%
Purity of macorolide compound 11107B ([2]; CD not added, 48 h): 34%
Purity of macorolide compound 11107B ([2]; CD not added, 120 h): 3%
Purity of macorolide compound 11107B ([2]; methylated β-CD (10 mg/mL solution mixed in equal volume with 0.1 mg/mL 11107B), 0 h): 98%
Purity of macorolide compound 11107B ([2]; methylated β-CD (10 mg/mL solution mixed in equal volume with 0.1 mg/mL 11107B), 24 h): 95%
Purity of macorolide compound 11107B ([2]; methylated β-CD (10 mg/mL solution mixed in equal volume with 0.1 mg/mL 11107B), 48 h): 92%
Purity of macorolide compound 11107B ([2]; methylated β-CD (10 mg/mL solution mixed in equal volume with 0.1 mg/mL 11107B), 120 h): 80%
Purity of macorolide compound 11107B ([2]; β-CD (10 mg/mL solution mixed in equal volume with 0.1 mg/mL 11107B), 0 h): 98%
Purity of macorolide compound 11107B ([2]; β-CD (10 mg/mL solution mixed in equal volume with 0.1 mg/mL 11107B), 24 h): 95%
Purity of macorolide compound 11107B ([2]; β-CD (10 mg/mL solution mixed in equal volume with 0.1 mg/mL 11107B), 48 h): 90%
Purity of macorolide compound 11107B ([2]; β-CD (10 mg/mL solution mixed in equal volume with 0.1 mg/mL 11107B), 120 h): 74%
stability in a solid form in a freeze-dried preparation on addition of cyclodextrin [3]: sufficiently stabilized
Purity of macorolide compound 11107B ([3]; HP-β-CD concentration 10 mg/mL, stored one month at 40° C.): 99.76 ± 0.08%
Purity of macorolide compound 11107B ([3]; HP-β-CD concentration 10 mg/mL, stored one month at 60° C.): 98.60 ± 0.06%
Purity of macorolide compound 11107B ([3]; HP-β-CD concentration 10 mg/mL, stored one month at −20° C.): 99.73 ± 0.01%
Purity of macorolide compound 11107B ([3]; HP-β-CD concentration 200 mg/mL, stored one month at 40° C.): 99.82 ± 0.02%
Purity of macorolide compound 11107B ([3]; HP-β-CD concentration 200 mg/mL, stored one month at 60° C.): 98.90 ± 0.05%
Purity of macorolide compound 11107B ([3]; HP-β-CD concentration 200 mg/mL, stored one month at −20° C.): 99.70 ± 0.00%
Purity of macorolide compound 11107B ([3]; HP-β-CD not added, stored one month at 40° C.): 98.17 ± 0.12%
Purity of macorolide compound 11107B ([3]; HP-β-CD not added, stored one month at 60° C.): 94.63 ± 0.11%
Purity of macorolide compound 11107B ([3]; HP-β-CD not added, stored one month at −20° C.): 99.56 ± 0.01%
Purity of macorolide compound 11107B ([4]; CD not added, 0 h, Dulbecco's PBS (-)): 99%
Purity of macorolide compound 11107B ([4]; CD not added, 24 h, Dulbecco's PBS (-)): 62%
Purity of macorolide compound 11107B ([4]; CD not added, 48 h, Dulbecco's PBS (-)): 35%
Purity of macorolide compound 11107B ([4]; HP-α-CD (10 mg/mL solution mixed in equal volume with 0.1 mg/mL 11107B), 0 h, PBS (-)): 99%
Purity of macorolide compound 11107B ([4]; HP-α-CD (10 mg/mL solution mixed in equal volume with 0.1 mg/mL 11107B), 24 h, PBS (-)): 71%
Purity of macorolide compound 11107B ([4]; HP-α-CD (10 mg/mL solution mixed in equal volume with 0.1 mg/mL 11107B), 48 h, PBS (-)): 47%
Purity of macorolide compound 11107B ([4]; HP-β-CD (10 mg/mL solution mixed in equal volume with 0.1 mg/mL 11107B), 0 h, PBS (-)): 100%
Purity of macorolide compound 11107B ([4]; HP-β-CD (10 mg/mL solution mixed in equal volume with 0.1 mg/mL 11107B), 24 h, PBS (-)): 93%
Purity of macorolide compound 11107B ([4]; HP-β-CD (10 mg/mL solution mixed in equal volume with 0.1 mg/mL 11107B), 48 h, PBS (-)): 86%
Purity of macorolide compound 11107B ([4]; HP-γ-CD (10 mg/mL solution mixed in equal volume with 0.1 mg/mL 11107B), 0 h, PBS (-)): 99%
Purity of macorolide compound 11107B ([4]; HP-γ-CD (10 mg/mL solution mixed in equal volume with 0.1 mg/mL 11107B), 24 h, PBS (-)): 83%
Purity of macorolide compound 11107B ([4]; HP-γ-CD (10 mg/mL solution mixed in equal volume with 0.1 mg/mL 11107B), 48 h, PBS (-)): 67%
Purity of macorolide compound 11107B ([4]; α-CD (10 mg/mL solution mixed in equal volume with 0.1 mg/mL 11107B), 0 h, PBS (-)): 99%
Purity of macorolide compound 11107B ([4]; α-CD (10 mg/mL solution mixed in equal volume with 0.1 mg/mL 11107B), 24 h, PBS (-)): 71%
Purity of macorolide compound 11107B ([4]; α-CD (10 mg/mL solution mixed in equal volume with 0.1 mg/mL 11107B), 48 h, PBS (-)): 47%
Purity of macorolide compound 11107B ([4]; β-CD (10 mg/mL solution mixed in equal volume with 0.1 mg/mL 11107B), 0 h, PBS (-)): 100%
Purity of macorolide compound 11107B ([4]; β-CD (10 mg/mL solution mixed in equal volume with 0.1 mg/mL 11107B), 24 h, PBS (-)): 95%
Purity of macorolide compound 11107B ([4]; β-CD (10 mg/mL solution mixed in equal volume with 0.1 mg/mL 11107B), 48 h, PBS (-)): 90%
Purity of macorolide compound 11107B ([4]; γ-CD (10 mg/mL solution mixed in equal volume with 0.1 mg/mL 11107B), 0 h, PBS (-)): 100%
Purity of macorolide compound 11107B ([4]; γ-CD (10 mg/mL solution mixed in equal volume with 0.1 mg/mL 11107B), 24 h, PBS (-)): 88%
Purity of macorolide compound 11107B ([4]; γ-CD (10 mg/mL solution mixed in equal volume with 0.1 mg/mL 11107B), 48 h, PBS (-)): 77%
